# Test results published in ChEMBL document CHEMBL2203009, “Synthesis of isoindole and benzoisoindole derivatives of teicoplanin pseudoaglycon with remarkable antibacterial and antiviral activities” (Bioorg Med Chem Lett, 2012).
# Legend:
# Vaccinia virus = test: Antiviral activity against Vaccinia virus infected in HEL cells assessed as inhibition of virus-induced cytopathic effect; assay type: functional, organism-based; settings: Orthopoxvirus vaccinia
# Human alphaherpesvirus 1 [1] = test: Antiviral activity against thymidine kinase deficient and acyclovir-resistant HSV1 KOS infected in HEL cells assessed as inhibition of virus-induced cytopathic effect; assay type: functional, organism-based; settings: Human alphaherpesvirus 1, KOS
# [2] = system: Vesicular stomatitis virus; test: Antiviral activity against Vesicular stomatitis virus infected in HEL cells assessed as inhibition of virus-induced cytopathic effect; assay type: functional, organism-based
# Human alphaherpesvirus 1 [3] = test: Antiviral activity against HSV1 KOS infected in HEL cells assessed as inhibition of virus-induced cytopathic effect; assay type: functional, organism-based; settings: Human alphaherpesvirus 1, KOS
# [4] = Toxicity in HEL cells assessed as induction of cell morphology changes; assay type: cell-based; settings: human
# Human alphaherpesvirus 2 = test: Antiviral activity against HSV2 G infected in HEL cells assessed as inhibition of virus-induced cytopathic effect; assay type: functional, organism-based; settings: Human alphaherpesvirus 2, strain G
# Enterococcus faecalis [5] = test: Antimicrobial activity against Enterococcus faecalis ATCC 51299 over-expressing vanB; assay type: functional
# [6] = system: Staphylococcus epidermidis; test: Antimicrobial activity against Staphylococcus epidermidis ATCC 35984 biofilms; assay type: functional
# Enterococcus faecalis [7] = test: Antimicrobial activity against Enterococcus faecalis ATCC 29212; assay type: functional
# Influenza A virus = test: Antiviral activity against Influenza A virus (A/Puerto Rico/8/1934(H1N1)) H1N1 infected in MDCK cells assessed as inhibition of virus-induced cytopathic effect; assay type: functional, organism-based
# Enterococcus faecalis [8] = test: Antimicrobial activity against Enterococcus faecalis 15376 over-expressing vanA; assay type: functional
# Staphylococcus aureus [9] = test: Antimicrobial activity against methicillin-sensitive Staphylococcus aureus ATCC 29213; assay type: functional
# Staphylococcus aureus [10] = test: Antimicrobial activity against methicillin-resistant Staphylococcus aureus ATCC 33591; assay type: functional
# [11] = system: Staphylococcus epidermidis; test: Antimicrobial activity against Staphylococcus epidermidis over-expressing MecA; assay type: functional
# Bacillus subtilis = test: Antimicrobial activity against Bacillus subtilis ATCC 6633; assay type: functional
# H3N2 subtype = test: Antiviral activity against Influenza A virus (A/Hong Kong/7/1987(H3N2)) […] infected in MDCK cells assessed as inhibition of virus-induced cytopathic effect; assay type: functional, organism-based
# [12] = Toxicity in MDCK cells assessed as induction of cell morphology changes; assay type: cell-based, Canis lupus familiaris; settings: dog
# Influenza B virus = test: Antiviral activity against Influenza B virus (B/Hong Kong/05/1972) […] infected in MDCK cells assessed as inhibition of virus-induced cytopathic effect; assay type: functional, cell-based; settings: B/Hong Kong/05/1972, MDCK
Compound,EC50 (Vaccinia virus),EC50 (Human alphaherpesvirus 1 [1]),EC50 [2],EC50 (Human alphaherpesvirus 1 [3]),MCC [4],EC50 (Human alphaherpesvirus 2),MBC (Enterococcus faecalis [5]),MIC (Enterococcus faecalis [5]),MBC [6],MIC [6],MBC (Enterococcus faecalis [7]),MIC (Enterococcus faecalis [7]),EC50 (Influenza A virus),MBC (Enterococcus faecalis [8]),MIC (Enterococcus faecalis [8]),MBC (Staphylococcus aureus [9]),MIC (Staphylococcus aureus [9]),EC50 (H3N2 subtype),MCC [12],EC50 (Influenza B virus),also measured
Nc1ccn(C[C@@H](CO)OCP(=O)(O)O)c(=O)n1 [CIDOFOVIR],21 µM,1.5 µM,> 250 µM,1.5 µM,> 250 µM,0.9 µM,–,–,–,–,–,–,–,–,–,–,–,–,–,–,–
CC(=O)N[C@H]1[C@H](O[C@@H]2c3ccc(c(Cl)c3)Oc3cc4cc(c3O)Oc3ccc(cc3Cl)C[C@H]3NC(=O)[C@H](n5cc6ccccc6c5Sc5nc6ccccc6s5)c5ccc(O)c(c5)Oc5cc(O)cc(c5)[C@H](NC3=O)C(=O)N[C@H]4C(=O)N[C@H]3C(=O)N[C@@H]2C(=O)N[C@H](C(=O)O)c2cc(O)cc(O)c2-c2cc3ccc2O)O[C@H](CO)[C@@H](O)[C@@H]1O,47 µM,45 µM,> 100 µM,45 µM,≥ 100 µM,45 µM,256 mg/L,0.0625 mg/L,0.5 mg/L,0.0075 mg/L,256 mg/L,2 mg/L,> 100 µM,256 mg/L,0.0313 mg/L,0.5 mg/L,0.0075 mg/L,> 100 µM,4 µM,> 100 µM,MBC (Staphylococcus aureus [10]): 0.5 mg/L; MIC (Staphylococcus aureus [10]): 0.0075 mg/L; MBC [11]: 256 mg/L; MIC [11]: 4 mg/L; MBC (Bacillus subtilis): 2 mg/L; MIC (Bacillus subtilis): 1 mg/L
CC(=O)N[C@@H]1[C@@H](OC(C)=O)[C@H](OC(C)=O)[C@@H](COC(C)=O)O[C@H]1Sc1c2ccccc2cn1[C@H]1C(=O)N[C@@H]2Cc3ccc(c(Cl)c3)Oc3cc4cc(c3O)Oc3ccc(cc3Cl)[C@@H](O[C@@H]3O[C@H](CO)[C@@H](O)[C@H](O)[C@H]3NC(C)=O)[C@@H]3NC(=O)[C@H](NC(=O)[C@@H]4NC(=O)[C@@H](NC2=O)c2cc(O)cc(c2)Oc2cc1ccc2O)c1ccc(O)c(c1)-c1c(O)cc(O)cc1[C@@H](C(=O)O)NC3=O,45 µM,45 µM,> 100 µM,40 µM,> 100 µM,40 µM,256 mg/L,2 mg/L,2 mg/L,0.0075 mg/L,256 mg/L,2 mg/L,> 100 µM,256 mg/L,0.0625 mg/L,1 mg/L,0.125 mg/L,> 100 µM,20 µM,> 100 µM,MBC (Staphylococcus aureus [10]): 2 mg/L; MIC (Staphylococcus aureus [10]): 0.0625 mg/L; MBC [11]: 32 mg/L; MIC [11]: 2 mg/L; MBC (Bacillus subtilis): 1 mg/L; MIC (Bacillus subtilis): 0.25 mg/L
Nc1nc2c(ncn2COCCO)c(=O)[nH]1 [ACYCLOVIR],≥ 250 µM,44 µM,> 250 µM,0.14 µM,> 250 µM,0.14 µM,–,–,–,–,–,–,–,–,–,–,–,–,–,–,–
O=c1[nH]c(=O)n([C@H]2C[C@H](O)[C@@H](CO)O2)cc1/C=C/Br [BRIVUDINE],10 µM,50 µM,> 250 µM,0.024 µM,> 250 µM,198 µM,–,–,–,–,–,–,–,–,–,–,–,–,–,–,–
CC(=O)N[C@@H]1[C@H](Oc2c3cc4cc2Oc2ccc(cc2Cl)[C@@H](O[C@@H]2O[C@@H](CO)[C@@H](O)[C@H](O)[C@@H]2NC(C)=O)[C@@H]2NC(=O)[C@H](NC(=O)[C@@H]4NC(=O)[C@H]4NC(=O)[C@@H](Cc5ccc(c(Cl)c5)O3)NC(=O)[C@H](N)c3ccc(O)c(c3)Oc3cc(O)cc4c3)c3ccc(O)c(c3)-c3c(O[C@H]4O[C@H](CO)[C@@H](O)[C@@H](O)[C@@H]4O)cc(O)cc3[C@@H](C(=O)O)NC2=O)O[C@@H](CO)[C@@H](O)[C@@H]1O,–,–,–,–,–,–,256 mg/L,4 mg/L,16 mg/L,2 mg/L,64 mg/L,2 mg/L,–,256 mg/L,256 mg/L,2 mg/L,0.5 mg/L,–,–,–,MBC (Staphylococcus aureus [10]): 2 mg/L; MIC (Staphylococcus aureus [10]): 0.5 mg/L; MBC [11]: 32 mg/L; MIC [11]: 8 mg/L; MBC (Bacillus subtilis): 16 mg/L; MIC (Bacillus subtilis): 0.5 mg/L
CC(=O)N[C@H]1[C@H](O[C@@H]2c3ccc(c(Cl)c3)Oc3cc4cc(c3O)Oc3ccc(cc3Cl)C[C@H]3NC(=O)[C@H](N)c5ccc(O)c(c5)Oc5cc(O)cc(c5)[C@H](NC3=O)C(=O)N[C@H]4C(=O)N[C@H]3C(=O)N[C@@H]2C(=O)N[C@H](C(=O)O)c2cc(O)cc(O)c2-c2cc3ccc2O)O[C@H](CO)[C@@H](O)[C@@H]1O,> 100 µM,> 100 µM,> 100 µM,> 100 µM,> 100 µM,> 100 µM,–,–,–,–,–,–,23 µM,–,–,–,–,17 µM,≥ 100 µM,> 100 µM,–
CC(=O)N[C@H]1[C@H](O[C@@H]2c3ccc(c(Cl)c3)Oc3cc4cc(c3O)Oc3ccc(cc3Cl)C[C@H]3NC(=O)[C@H](n5cc6ccccc6c5Sc5ccccc5)c5ccc(O)c(c5)Oc5cc(O)cc(c5)[C@H](NC3=O)C(=O)N[C@H]4C(=O)N[C@H]3C(=O)N[C@@H]2C(=O)N[C@H](C(=O)O)c2cc(O)cc(O)c2-c2cc3ccc2O)O[C@H](CO)[C@@H](O)[C@@H]1O,> 20 µM,≥ 20 µM,> 20 µM,9 µM,≥ 20 µM,9 µM,256 mg/L,2 mg/L,0.5 mg/L,0.0165 mg/L,256 mg/L,0.0075 mg/L,> 100 µM,32 mg/L,2 mg/L,128 mg/L,0.125 mg/L,> 100 µM,4 µM,> 100 µM,MBC (Staphylococcus aureus [10]): 2 mg/L; MIC (Staphylococcus aureus [10]): 0.0625 mg/L; MBC [11]: 32 mg/L; MIC [11]: 2 mg/L; MBC (Bacillus subtilis): 1 mg/L; MIC (Bacillus subtilis): 1 mg/L
CC(N)C12CC3CC(CC(C3)C1)C2 (centres undefined) [RIMANTADINE],–,–,–,–,–,–,–,–,–,–,–,–,14 µM,–,–,–,–,0.051 µM,–,> 500 µM,–
CC(=O)N[C@H]1[C@H]([C@H](O)[C@H](O)CO)OC(C(=O)O)=C[C@@H]1NC(=N)N [ZANAMIVIR],–,–,–,–,–,–,–,–,–,–,–,–,1.6 µM,–,–,–,–,4.8 µM,> 100 µM,23 µM,–
CC(=O)N[C@@H]1[C@@H](O)[C@H](O)[C@@H](CO)O[C@H]1Sc1c2ccccc2cn1[C@H]1C(=O)N[C@@H]2Cc3ccc(c(Cl)c3)Oc3cc4cc(c3O)Oc3ccc(cc3Cl)[C@@H](O[C@@H]3O[C@H](CO)[C@@H](O)[C@H](O)[C@H]3NC(C)=O)[C@@H]3NC(=O)[C@H](NC(=O)[C@@H]4NC(=O)[C@@H](NC2=O)c2cc(O)cc(c2)Oc2cc1ccc2O)c1ccc(O)c(c1)-c1c(O)cc(O)cc1[C@@H](C(=O)O)NC3=O,47 µM,45 µM,52 µM,47 µM,≥ 100 µM,45 µM,256 mg/L,4 mg/L,0.5 mg/L,0.0313 mg/L,256 mg/L,1 mg/L,> 100 µM,256 mg/L,1 mg/L,1 mg/L,0.5 mg/L,> 100 µM,< 0.8 µM,> 100 µM,MBC (Staphylococcus aureus [10]): 1 mg/L; MIC (Staphylococcus aureus [10]): 1 mg/L; MBC [11]: 64 mg/L; MIC [11]: 0.0075 mg/L; MBC (Bacillus subtilis): 1 mg/L; MIC (Bacillus subtilis): 0.125 mg/L
CC(=O)N[C@H]1[C@H](O[C@@H]2c3ccc(c(Cl)c3)Oc3cc4cc(c3O)Oc3ccc(cc3Cl)C[C@H]3NC(=O)[C@H](n5cc6cc7ccccc7cc6c5Sc5nc6ccccc6s5)c5ccc(O)c(c5)Oc5cc(O)cc(c5)[C@H](NC3=O)C(=O)N[C@H]4C(=O)N[C@H]3C(=O)N[C@@H]2C(=O)N[C@H](C(=O)O)c2cc(O)cc(O)c2-c2cc3ccc2O)O[C@H](CO)[C@@H](O)[C@@H]1O,> 100 µM,> 100 µM,> 100 µM,> 100 µM,> 100 µM,> 100 µM,256 mg/L,1 mg/L,0.5 mg/L,0.015 mg/L,256 mg/L,0.0313 mg/L,< 4.9 µM,32 mg/L,0.0313 mg/L,0.5 mg/L,0.015 mg/L,1.6 µM,20 µM,> 100 µM,MBC (Staphylococcus aureus [10]): 4 mg/L; MIC (Staphylococcus aureus [10]): 0.015 mg/L; MBC [11]: 256 mg/L; MIC [11]: 0.0313 mg/L; MBC (Bacillus subtilis): 4 mg/L; MIC (Bacillus subtilis): 0.0313 mg/L
NC(=O)c1ncn([C@@H]2O[C@H](CO)[C@@H](O)[C@H]2O)n1 [RIBAVIRIN],–,–,–,–,–,–,–,–,–,–,–,–,6.1 µM,–,–,–,–,6 µM,–,4.6 µM,–
Nc1nc2c(ncn2COC(CO)CO)c(=O)[nH]1 [GANCICLOVIR],> 100 µM,4 µM,> 100 µM,0.015 µM,> 100 µM,0.013 µM,–,–,–,–,–,–,–,–,–,–,–,–,–,–,–
NC12CC3CC(CC(C3)C1)C2 [AMANTADINE],–,–,–,–,–,–,–,–,–,–,–,–,212 µM,–,–,–,–,0.45 µM,≥ 500 µM,> 500 µM,–
